Consider four compounds from patent publication US8518459B2, “Composition for regulating lipid metabolism” (Actigenomics S.A., priority 2009, dated 2013).

The test system of data set [1] is C57B16J mice submitted to diet rich in cholesterol. Put plainly: Non-fasting insulinemia after 12 weeks. The format is in vivo, C57bl6J male mice. The following applies: after 12 weeks of treatment. How it is done: (§1) […] C57bl6J male mice (8 weeks of age) from breeding company Janvier (Le Genest Saint Isle, France) are distributed in cages and housed in a room with controlled humidity and temperature (23±0.5° C.). They are subject to a 12/12-hr light cycle (light at 7 am). During one week of adaptation, the animals have free access to drinking water and food, and are then randomized into 5 groups of 12 animals using as selection criteria weight, triglyceridemia and cholesterolemia.
(§2) • a control group receiving a diet enriched in cholesterol (see composition in Table 1) • a group treated with the reference, atorvastatin, 10 mg/kg/day, • a group receiving a 125 ng/kg/day concentration of Lipistase, • a group receiving PS (a mixture of phytosterols and stanols) to the total dose of 1.2 g/kg/day, • a group receiving a combination of Lipistase and phytosterols.
(§3) All products (reference, study products and combination of products) are administered in the diet enriched in cholesterol, and administration to animals lasts three months. Lipistase, being in the form of a soybean oil suspension, all diets receive the same volume (1.8% w/w) of neutral soybean oil than that required to provide the desired amount of Lipistase. […]

The test system is the same in data set [2]. Put plainly: Index of adiponectin secretion by adipose tissue. In kind it is in vivo, C57bl6J male mice. The following applies: adiponectin concentration (μg/ml)/mass of adipose tissue (g). How it is done:
as §1, §2, §3

For data set [3] the test system is unchanged. Put plainly: Adiposity index and distribution of white adipose tissue after 12 weeks. In kind it is in vivo, C57bl6J male mice. The following applies: after 12 weeks of treatment. How it is done:
as §1, §2
(§4) All products (reference, study products and combination of products) are administered in the diet enriched in cholesterol, and administration to animals lasts three months. Lipistase, being in the form of a soybean oil suspension, all diets receive the same volume (1.8% w/w) of neutral soybean oil than that required to provide the desired amount of Lipistase.
Animals are sacrificed by cervical dislocation; liver, muscles (gastrocnemius and soleus), heart are quickly dissected, weighed and frozen in liquid nitrogen, then stored at −80° C. The various deposits of fat tissues (subcutaneous, peri-renal, inguinal and mesenteric) are removed and weighed to calculate the adiposity index.

Data set [4] shares this test system. In words: Non-fasting glycemia after 12 weeks. The format is in vivo, C57bl6J male mice. Conditions: after 12 weeks of treatment. How it is done: as §1
• a control group receiving a diet enriched in cholesterol (see composition in Table 1) • a group treated with the reference, atorvastatin, 10 mg/kg/day, • a group receiving a 125 ng/kg/day concentration of Lipistase, • a group receiving PS (a mixture of phytosterols and stanols) to the total dose of 1.2 g/kg/day, • a group receiving a combination of Lipistase and phytosterols. […]
Euthanasia is performed after 3 months of treatment (12 weeks). A blood test is performed, and the following parameters are measured on an automated Konelab (Thermo Fisher, France): total cholesterol (Thermo Fisher, 981,813), triglycerides (Thermo Fisher, 981,786), glucose (Thermo Fisher, 981,780), ALAT (Thermo Fisher, 981,769), ALP (Thermo Fisher, 981,771), ASAT (Thermo Fisher, 981,771).

Data set [5] shares this test system. In words: Distribution of cholesterol in lipoproteins by FPLC. The format is in vivo, C57bl6J male mice. The following applies: VLDL fraction. How it is done:
as §1, §2
All products (reference, study products and combination of products) are administered in the diet enriched in cholesterol, and administration to animals lasts three months. […]
The determination of lipoprotein profiles is carried out by FPLC (Synelvia, France) after two and three months of treatment and the amounts of cholesterol and triglycerides are measured in the different fractions (HDL, LDL and VLDL).

Data set [6] in a line: Body weight and weight gain of mice on cholesterol-enriched diet, 12 weeks of treatment. In kind it is in vivo, C57bl6J male mice. Conditions: diet rich in cholesterol. How it is done:
as §1, §2, §4
The assessment of weight and food intake is carried out once a week. […]

For data set [7] the following is noted: intestinal tract; cited from earlier work.

`CC(C)c1c(C(=O)Nc2ccccc2)c(-c2ccccc2)c(-c2ccc(F)cc2)n1CC[C@@H](O)C[C@@H](O)CC(=O)O` [atorvastatin]: in data set [1], the “Insulin levels, percentage change compared to controls HC (FIG. 14)” value was −50% and the “Insulinemia, circulating rate (FIG. 14)” value turned out to be 2.79 ± 0.33 ng/mL. Also, the “Adiponectin secretion index, effect in words (FIG. 9)” value in data set [2] is “significantly elevated”. Also, in data set [3], the “Adiposity index, effect in words (FIG. 5)” value is “reduction of this index”; the “Epididymal fat, percentage change compared to controls HC (FIG. 6)” value is given as −46%; the “Perirenal (deep) fat, percentage change compared to controls HC (FIG. 6)” value is −48%; the “Subcutaneous fat, percentage change compared to controls HC (FIG. 6)” value is recorded as −57%. The “Glycemia / blood sugar, effect in words” value in data set [4] is recorded as “at the same level than that of the control animals”. Moreover, the “Free cholesterol in VLDL, percentage change compared to controls HC (FIG. 11b)” value in data set [5] is recorded as −35%. In addition, in data set [6], the “Body weight compared to control animals (FIG. 1)” value is reported as “significantly lower” and the “Weight gain (FIG. 2)” value was “reduction of weight gain”.

With `CC[C@H](CC[C@@H](C)[C@H]1CC[C@H]2[C@@H]3CC=C4C[C@@H](O)CC[C@]4(C)[C@H]3CC[C@]12C)C(C)C` [sitosterol], the Intestinal absorption in data set [7] is given as 4-7%.

Take `CC(C)CCC[C@@H](C)[C@H]1CC[C@H]2[C@@H]3CC=C4C[C@@H](O)CC[C@]4(C)[C@H]3CC[C@]12C` [cholesterol]: the Intestinal absorption in data set [7] is on record as 50%.

Take `CC[C@H](CC[C@@H](C)[C@H]1CC[C@H]2[C@@H]3CC[C@H]4C[C@@H](O)CC[C@]4(C)[C@H]3CC[C@]12C)C(C)C` [sitostanol]: in data set [7], the Intestinal absorption is on record as 1%.
